Each structure is given as a SMILES string.

The values that follow come from a melting point compilation (Tetko et al.; mined from patent text by program, amines drawn as free bases though some values may be those of a salt).

With `CC1Cc2c(c(Cl)cc(F)c2N2C(=O)c3ccccc3C2=O)O1` (stereo unspecified), the melting point (usually the temperature, or range, at which the solid turns liquid) was in the range of 158 to 160 °C.

With `C=Cn1cc(C(=O)O)c(=O)c2cc(F)c(N3CCOCC3)cc21`, the melting point fell in the range of 218 to 220 °C.

`Fc1cc(F)c2c(c1)C[C@@H](n1ccn(CCc3ccccc3)c1=S)CC2` gave a melting point of 131 to 133 °C.

The compound `N#Cc1cc2c(Nc3cccc(Cl)c3)ncnc2[nH]1` registered a melting point of 284 to 287 °C.

The compound `Cc1ccc(Cn2c(=O)c3c(Cl)cc(Cl)cc3n(Cc3ccccc3)c2=O)o1` had a melting point of 159 to 161 °C.

On to `O=C(c1nn(-c2ccc(F)cc2F)c2c1C1CCC2C1)N1CCc2ccccc2C1` (stereo unspecified), for which the melting point lay in the range of 134 to 138 °C.

Turning to `O=C(c1ccccc1)N1CCNc2ncc(I)cc21`, the melting point was 164 to 166 °C.

Compound `O=C(CBr)c1cc(-c2cccc(C(F)(F)F)c2)nc(C(F)(F)F)c1` showed a melting point of 87 to 89 °C.

For the compound `CCCN(C)C(=O)Nc1c(C(=O)c2ccccc2)[nH]c2cc(Cl)ccc12`, the melting point was 168 to 171 °C.

In the case of `CC(C)n1nc(-c2nc(C(N)=S)c(N)nc2-c2ccccc2)ccc1=O`, the melting point is > 250 °C.

In turn, `CCOC(=O)CN(C(=O)C(F)(F)F)C(Sc1ccccc1)P(=O)(O)ONC(C)C` (stereo unspecified) registered a melting point of 102 to 103 °C.

For `CCn1cc(C(=O)O)c(=O)c2cc(F)c(C(=O)CBr)c(F)c21`, the melting point is 213 to 215 °C.

The compound `Fc1ccccc1-c1nc2ncncc2[nH]1` gave a melting point of 267 to 271 °C.

As to `CCOc1ccc(N)c(S)c1`, the melting point is 104 °C.

Consider `COc1ccc2c(c1)NC(=O)C2=Cc1[nH]c2c(c1CCC(=O)O)CCCC2`, for which the melting point lay within 263 to 266 °C.

For `CCOc1c(N2CCNCC2)c(F)cc2c(=O)c(C(=O)O)cn(C3CC3)c12`, the melting point was in the range of 119 to 122 °C.

As to `CCCOC(=O)CC(c1ccc(OC)cc1)N1C(=O)c2ccccc2C1=O` (stereo unspecified), the melting point lay within 51.2 to 52.8 °C.

The compound `C[C@H]1COc2c(C#N)cccc2C(=O)N(C[C@@H](CCN)c2ccc(Cl)c(Cl)c2)C1` returned a melting point of 82 to 128 °C.

Compound `O=C(O)Cc1ccccc1OCCC(c1ccccc1)(c1ccccc1)c1ccccc1` registered a melting point of 79 to 80 °C.

For `O=C(Nc1cc(Cl)ccc1-c1nnn[nH]1)c1cnn(-c2ccc(Cl)cc2)c1C(F)(F)F`, the melting point lay within 176 to 180 °C.

The compound `CCN(CC)c1ccc(N=Nc2ccc(C#N)c(C#N)c2)c(NC(C)=O)c1` displayed a melting point of 181 to 182 °C.

The compound `CC(=O)n1c(-c2ccc(C#N)cc2)cc2ccccc21` returned a melting point of 158 to 160 °C.

`COc1cc(C(=O)NS(=O)(=O)c2ccccc2C)ccc1Cc1cn(CC(=O)N(C)C)c2ccc(NC(=O)CC3CCCC3)cc12` yielded a melting point of 215 to 218 °C.

`COc1cc(N)c(Cl)cc1C(=O)N[C@H]1CCN(CCCCNc2ncccn2)C[C@H]1OC` (relative stereo) had a melting point of 115 °C.

Consider `Cc1onc(-c2ccco2)c1-c1ccccc1`, for which the melting point fell in the range of 93 to 96 °C.

Compound `BrCCCCOc1ccc2c(ccn2-c2ccc(Br)cc2)c1` had a melting point of 80 to 81 °C.

On to `Fc1ccc(-c2cnc3nc(C(F)(F)F)cnn23)cc1-c1ccccn1`, for which the melting point fell in the range of 128 to 131 °C.

`O=C(Nc1ccc(F)c(NC(=S)Nc2cc(Cl)cc(Cl)c2)c1)c1ccc(F)c(F)c1` gave a melting point of 197 °C.

`CC(=O)c1c(C)cc(NC(C)(C)C)nc1NC(C)(C)C` returned a melting point of 127 to 128 °C.

As for `O=C(c1ccoc1)c1ccc2[nH]c(=O)cc(-c3cccc(Cl)c3)c2c1`, the melting point is > 250 °C.

Take `CC(C)n1nc(-c2c(-c3ccccc3)nn3ccc(C(=O)NC(C)(C)C)cc23)ccc1=O`: the melting point lay within 200 to 201 °C.

As to `Cc1noc2cc3c(cc12)C1(CO3)C(=O)N(Cc2ccc(-c3ccno3)cc2)c2ccccc21` (stereo unspecified), the melting point lay in the range of 192 to 194 °C.

Turning to `CCCC(=O)NCCC1=C(Cc2ccccc2)Cc2ccc(OC)cc21`, the melting point fell in the range of 127 to 129 °C.

As to `Cc1cc(F)ccc1-c1c(O)c(C)c(-c2ccccn2)oc1=O`, the melting point is 123 to 125 °C.

Regarding `O=C(Cn1ccnc1)Nc1cccc2nc(N[C@@H]3CCc4ccccc43)ccc12`, the melting point worked out at 226 °C.

In turn, `CN(CCCN1c2ccccc2CCc2ccccc21)c1ncccc1C(=O)O` had a melting point of 133 to 135 °C.

For `Nc1nc(N)c(-c2ccc(Cl)cc2Cl)c(CF)n1`, the melting point lay within 210 to 211 °C.

In the case of `CN(C[C@H](O)[C@@H](O)[C@H](O)[C@H](O)CO)C(=O)c1ccc2n1Cc1ccccc1N(C(=O)c1ccc(-c3cccc4ccccc34)nc1)C2`, the melting point lay in the range of 165 to 167 °C.

Compound `CCS(=O)(=O)Nc1cc(C2(NC)NC=NC=C2Cl)c(F)cc1C#N` (stereo unspecified) came in with a melting point of 211 to 212 °C.

The compound `O=C(Oc1ccc(Cl)c(Cl)c1)c1cc2c(cn1)[nH]c1ccccc12` showed a melting point of 260 to 261 °C.

As to `COc1ccc(Cn2nc(-c3ccc(SC)cc3)c(-c3ccc(F)cc3)cc2=S)cc1`, the melting point amounted to 113 °C.

`CC(O)(c1nc2ccccc2[nH]1)C(F)(F)F` (stereo unspecified) had a melting point of 184 to 187 °C.

Consider `O=C1CCC(N2C(=O)c3cccc(CNC(=O)OCc4ccccc4)c3C2=O)C(=O)N1` (stereo unspecified), for which the melting point was in the range of 166 to 168 °C.

For the compound `O=c1ccn(C2OC(CO)C(O)C2Cl)c(=O)[nH]1` (stereo unspecified), the melting point was in the range of 206 to 207 °C.

Turning to `C=Cc1ccc2nnn(OS(=O)(=O)c3ccc(C)cc3)c2c1`, the melting point fell in the range of 90 to 91 °C.

As to `O=C(/C=C/c1cccnc1)NCCc1ccccc1O`, the melting point was in the range of 170 to 172 °C.

`ON=Cc1cccc(OCc2ccccc2)c1` yielded a melting point of 58 to 59 °C.

In turn, `CCCNC(=S)n1nc(Oc2c(Cl)cc(C(F)(F)F)cc2Cl)cc1C` came in with a melting point of 71 to 73 °C.

For `Cc1noc(NS(=O)(=O)c2ccccc2-c2ccc(-c3ncco3)cc2COc2ccc(-c3ccccc3)cc2)c1C`, the melting point was in the range of 95 to 105 °C.

With `CCCCCCCCCCCCCCCC(=O)C1(O)OC(COCc2ccccc2)C(OCc2ccccc2)C(OCc2ccccc2)C1OCc1ccccc1` (stereo unspecified), the melting point was in the range of 52 to 53 °C.

On to `COc1ncc(CC2SC(N3CCOCC3)=NC2=O)cc1-c1ccc(O)c(C23CC4CC(CC(C4)C2)C3)c1` (stereo unspecified), for which the melting point is 175 to 177 °C.

Compound `O=C1Nc2ccc(Cl)cc2C1(NCCO)c1ccccc1Cl` (stereo unspecified) displayed a melting point of 198 to 200 °C.

The compound `CC(C)C(=O)c1ccc(-c2ccc3c(c2)CC[C@H]2N(C)C(=O)CC[C@]32C)cc1` came in with a melting point of 101 to 103 °C.

As for `NS(=O)(=O)c1ccc(-c2cnn(Cc3cccc(F)c3)c(=O)c2-c2ccc(F)cc2)cc1`, the melting point was in the range of 220 to 222 °C.

For the compound `COc1cc(-c2cc(C3CCOCC3)no2)cc2oc(=O)c(C)c(C)c12`, the melting point is 151 °C.

With `COc1cc(OC)c(C)c(C(=O)NCC23CC4CC(CC(Cl)(C4)C2)C3)c1`, the melting point lay within 173 to 175 °C.

Regarding `CCCCCCCCCCCCCCCCCC(O)c1cc(C(=O)OCC)ccc1O` (stereo unspecified), the melting point was found to be 75 °C.

For `CCCCCCC1(c2cc(O)c([C@@H]3CC(=O)C4CC3C4(C)C)c(O)c2)OCCO1` (stereo partly specified), the melting point fell in the range of 185 to 186 °C.

The compound `Cc1nc(Cl)c2c(n1)c(C)nn2C` came in with a melting point of 91 to 93 °C.

Compound `CSc1cccc(-c2ccccc2)c1S(N)(=O)=O` returned a melting point of 167 to 168 °C.

In turn, `c1ccc(Nc2nc[nH]c3ncc(-c4ccccc4)c2-3)cc1` came in with a melting point of 208 to 209 °C.
